# In patent US11077128B2, “Selective inhibitors of Alpha2-containing isoforms of Na,K-ATPase and use thereof for reduction of intraocular pressure” (Yeda Research and Development Co. Ltd., priority 2015, dated 2021):
# Like-named read-outs stand apart in the source and are kept apart here.
# Key:
# [1] = molecular target: human Na,K-ATPase α1β1FXYD1 (Homo sapiens (Human), UniProt P05023); assay: biochemical
# [2] = molecular target: human Na,K-ATPase α2β1FXYD1 (Homo sapiens, UniProt P50993); assay: biochemical; assay type: biochemical
# [3] = molecular target: human Na,K-ATPase α2β2FXYD1 (Homo sapiens (Human), UniProt P50993); assay: biochemical
# [4] = molecular target: human Na,K-ATPase α2β3FXYD1 (Homo sapiens (Human), UniProt P50993); assay: biochemical; assay type: biochemical
# [5] = test system: human Na,K-ATPase α2β3FXYD1; assay: biochemical; assay type: biochemical
# IOP in rabbits [6] = assay type: in vivo, New Zealand white rabbits; conditions: one drop topically prior to 4AP, IOP over 5 hours
# IOP in rabbits [7] = assay: Lowering of basal IOP in rabbits, topical; assay type: in vivo, New Zealand white rabbits
smiles,measurement,setting,value
"CC1CN(C2CCC2)CCC(O[C@@H]2C(C)O[C@@H](OC3C(C)OC(O[C@H]4CC[C@@]5(C)C(CCC6C5CC[C@]5(C)[C@@H](C7=CC(=O)OC7)CC[C@]65O)C4)C[C@@H]3O)C[C@@H]2O)O1 (stereo in doubt) [DtxcB, 4-((3S,5R,8R,9S,10S,13R,14S,17R)-3-(((2S,4S,5R,6R)-5-(((2S,4S,5S,6R)-5-((4-cyclobutyl-2-methyl-1,4-oxazepan-7-yl)oxy)-4-hydroxy-6-methyltetrahydro-2H-pyran-2-yl)oxy)-4-hydroxy-6-methyltetrahydro-2H-pyran-2-yl)oxy)-14-hydroxy-10,13-dimethylhexadecahydro-1H-cyclopenta[a]phenanthren-17-yl)furan-2(5H)-one]",Ki,[1],30.7 ± 7.2 nM
same,Ki,[2],5.4 ± 0.5 nM
same,Ki,[3],5.3 ± 0.8 nM
same,Ki,[4],4.3 ± 0.6 nM
same,Ki reduced compared to digoxin,[4],about 10 fold
"CC1CN(CC2CC2)CCC(O[C@@H]2C(C)O[C@@H](O[C@@H]3C(C)O[C@@H](O[C@H]4CC[C@@]5(C)C(CCC6C5CC(O)[C@]5(C)[C@@H](C7=CC(=O)OC7)CC[C@]65O)C4)C[C@@H]3O)C[C@@H]2O)O1 (stereo in doubt) [DMcP, 4-((3S,5R,8R,9S,10S,12R,13S,14S,17R)-3-(((2R,4S,5S,6R)-5-(((2S,4S,5S,6R)-5-((4-(cyclopropylmethyl)-2-methyl-1,4-oxazepan-7-yl)oxy)-4-hydroxy-6-methyltetrahydro-2H-pyran-2-yl)oxy)-4-hydroxy-6-methyltetrahydro-2H-pyran-2-yl)oxy)-12,14-dihydroxy-10,13-dimethylhexadecahydro-1H-cyclopenta[a]phenanthren-17-yl)furan-2(5H)-one]",Selectivity Ki ratio α1β1/α2β1,[2],5.2
same,Selectivity Ki ratio α1β1/α2β3,[5],22
same,concentration that prevents the rise of the 4AP-induced IOP,IOP in rabbits [6],0.01 mM
"CC1CN(CC2CC2)CCC(O[C@@H]2C(C)O[C@@H](OC3C(C)OC(O[C@H]4CC[C@@]5(C)C(CCC6C5CC[C@]5(C)[C@@H](C7=CC(=O)OC7)CC[C@]65O)C4)C[C@@H]3O)C[C@@H]2O)O1 (stereo in doubt) [DtxMcP, 4-((3S,5R,8R,9S,10S,13R,14S,17R)-3-(((2S,4S,5R,6R)-5-(((2S,4S,5S,6R)-5-((4-(cyclopropylmethyl)-2-methyl-1,4-oxazepan-7-yl)oxy)-4-hydroxy-6-methyltetrahydro-2H-pyran-2-yl)oxy)-4-hydroxy-6-methyltetrahydro-2H-pyran-2-yl)oxy)-14-hydroxy-10,13-dimethylhexadecahydro-1H-cyclopenta[a]phenanthren-17-yl)furan-2(5H)-one]",Ki,[1],25 ± 4 nM
same,Ki,[2],4.2 ± 0.4 nM
same,Ki,[3],5.4 ± 1.2 nM
same,Ki,[4],3.7 ± 0.5 nM
same,Ki reduced compared to digoxin,[4],about 10 fold
"[O]=[V]([OH])([OH])[OH] [vanadate, reference compound]",Ki,[4]; read-out: apparent vanadate affinity (Ki vanadate) α2β3,19000 nM
"CC1CN(C2CCC2)CCC(O[C@@H]2C(C)O[C@@H](O[C@@H]3C(C)O[C@@H](O[C@H]4CC[C@@]5(C)C(CCC6C5CC(O)[C@]5(C)[C@@H](C7=CC(=O)OC7)CC[C@]65O)C4)C[C@@H]3O)C[C@@H]2O)O1 (stereo in doubt) [DcB, 4-((3S,5R,8R,9S,10S,12R,13S,14S,17R)-3-(((2R,4S,5S,6R)-5-(((2S,4S,5S,6R)-5-((4-cyclobutyl-2-methyl-1,4-oxazepan-7-yl)oxy)-4-hydroxy-6-methyltetrahydro-2H-pyran-2-yl)oxy)-4-hydroxy-6-methyltetrahydro-2H-pyran-2-yl)oxy)-12,14-dihydroxy-10,13-dimethylhexadecahydro-1H-cyclopenta[a]phenanthren-17-yl)furan-2(5H)-one]",Selectivity Ki ratio α1β1/α2β3,[5],33
same,concentration that prevents the rise of the 4AP-induced IOP,IOP in rabbits [6],0.01 mM
same,reduction of basal IOP at higher concentration,IOP in rabbits [7]; 2 mM,reduces the IOP similarly to 1 mM DcB
CC1CN(C)CCC(O[C@@H]2[C@H](C)O[C@@H](O[C@@H]3[C@H](C)O[C@@H](O[C@H]4CC[C@@]5(C)C(CCC6C5C[C@H](O)[C@]5(C)[C@@H](C7=CC(=O)OC7)CC[C@]65O)C4)C[C@@H]3O)C[C@@H]2O)O1 (stereo partly shown) [DMe],Selectivity Ki ratio α1β1/α2β1,[2],6.7
same,Selectivity Ki ratio α1β1/α2β3,[5],9.5
same,effect on lowering the basal IOP,"IOP in rabbits [7]; one drop of 1 mM solution, other eye PBS",coincides with other observations
"CC(=O)O[C@H]1C[C@H](O[C@H]2[C@@H](OC(C)=O)C[C@H](O[C@H]3CC[C@@]4(C)[C@H](CC[C@@H]5[C@@H]4C[C@@H](OC(C)=O)[C@]4(C)[C@@H](C6=CC(=O)OC6)CC[C@]54O)C3)O[C@@H]2C)O[C@H](C)[C@H]1OC1CCN(C2CCC2)CC(C)O1 (stereo partly drawn) [TrisAcDcB, (2R,3R,4S,6R)-6-(((3S,5R,8R,9S,10S,12R,13S,14S,17R)-12-acetoxy-14-hydroxy-10,13-dimethyl-17-(5-oxo-2,5-dihydrofuran-3-yl)hexadecahydro-1H-cyclopenta[a]phenanthren-3-yl)oxy)-3-(((2S,4S,5R,6R)-4-acetoxy-5-((4-cyclobutyl-2-methyl-1,4-oxazepan-7-yl)oxy)-6-methyltetrahydro-2H-pyran-2-yl)oxy)-2-methyltetrahydro-2H-pyran-4-yl acetate]",time to minimum IOP,IOP in rabbits [7]; 0.05-0.2 mM,5 to 6 h
same,minimum IOP,"IOP in rabbits [7]; dropped from 15-16 mmHg, 0.05-0.2 mM",12 mmHg
same,effect on basal IOP in the first hours (lag),"IOP in rabbits [7]; one 30 μl drop, 0.05, 0.1, 0.2 mM",no effect was observed at the first four hours
same,time of return of IOP to the control level,"IOP in rabbits [7]; prodrug, 0.05-0.2 mM",12 h
same,maximal effect on IOP compared with parent DcB,"IOP in rabbits [7]; rabbit, in vivo",essentially equal to that produced by the parent DcB
